These results are taken from patent US5747472A, “Therapeutic methods for using ARA-G derivatives” (Glaxo Wellcome Inc., priority 1990, dated 1998).

≈ marks a conversion by molar mass, not a printed value. Entries after “also recorded” stand apart in the source; their conditions may differ. Where two headings read alike, the source gives them in different places. A value given as a limit tells only on which side of the number the result lay.

Data set [1] deals with Molt 4 cells. The data set can be described thus: Inhibition of the growth of T cells (Molt 4). Format: cell-based. The following applies: Homo sapiens. The method, then: (§1) The compounds of the invention were tested for inhibition of the growth of T cells (Molt 4) compared to B cells (IM9) by the method of Averett, D., Journal of Virological Methods, 23, (1989), 263-276.
The test system of data set [2] is IM9 cells. The data set can be described thus: Inhibition of the growth of B cells (IM9). Format: cell-based. The note with it: Homo sapiens; for IC50: IM-9; for activity at 10 µM: IM-9, printed in parentheses beside IC50 >10 μM, read-out: % of Control growth. The method, then:
as §1

Data set [3] is described as follows: Solubility in PBS at 25° C. The note with it: aqueous buffer, phosphate buffered saline. It is filed as physicochemical.
Data set [4] is described as follows: Bioavailability of araG after oral administration to Cynomolgus monkeys (plasma, urine). Format: in vivo. The following applies: fasted Cynomolgus monkeys, individual animals; for Cmax: read-out: Plasma araG Peak Level. The protocol:
AraG and compounds of the invention were administered orally to Cynomolgus monkeys which had been fasted for eight hours. Each compound was given to two monkeys. The dosage was 94 μmol/kg which is equivalent to 27 mg/kg araG. Blood samples were taken over the following 24 hours, and urine was collected over the same 24 hours. Concentrations of araG in plasma extracts and urine were determined by reverse phase HPLC.

The nature of data set [5]: Water solubility (statement). It is filed as physicochemical. The note with it: in words.
Data set [6] is described as follows: Bioavailability after oral dosing in primates (statement). The following applies: in words. Format: in vivo.
Data set [7] deals with T cells compared to B cells; T-leukemic cells. The following applies: cited from earlier work.
Data set [8] concerns human T-cell line (Molt 4) in contrast to a human B-cell line (IM9). The data set can be described thus: Selective inhibition of T cell growth, Molt 4 compared to IM9. The note with it: Molt 4 vs IM9. It is filed as cell-based. The method, then: as §1

In the case of `Nc1nc2c(ncn2[C@@H]2O[C@H](CO)[C@@H](O)[C@@H]2O)c(=O)[nH]1` [araG, arabinofuranosyl guanine], the IC50 (commonly the concentration that gives 50% inhibition) was 1400 ± 80 nM in data set [1] and above 10000 nM in data set [2]. Moreover, the activity at 10 µM in data set [2] worked out at 84%. For the same compound, the solubility (as a rule, how much of the substance goes into solution per volume) in data set [3] worked out at 4 mM (≈ 1.13 mg/mL). The “Plasma araG AUC 0.7 hrs” value in data set [4] (94 μmol/kg, plasma, 420 min) is 21.1 µM·h. Moreover, the Cmax stood at 4.6 µM in data set [4] (94 μmol/kg, plasma) and 6 µM in data set [4] (cynomolgus monkey, plasma, po, 94 umol/kg, plasma). For the same compound, the “Urine % Recovered as araG” value in data set [4] (94 μmol/kg, urine over 24 hours, 1440 min) was 4.2%. Besides, the AUC(0-t) at 7 h in data set [4] (cynomolgus monkey, plasma, po, 94 umol/kg, plasma, read-out: Plasma araG AUC 0.7 hrs) is 20.8 µM·h. Further, the dose excreted at 24 h in data set [4] (cynomolgus monkey, urine, po, 94 umol/kg, urine over 24 hours, read-out: Urine % Recovered as araG) was determined as 3.9%. In data set [5], the water solubility result is “limited water solubility”. In addition, the oral bioavailability result in data set [6] was “low bioavailability after oral dosing in primates”. Further, the “selective inhibition of growth of T cells / selective cytotoxic activity for T-leukemic cells” value in data set [7] was “selectively inhibits the growth of T cells compared to B cells; also recorded: selective cytotoxic activity for T-leukemic cells”.
`COc1nc(N)nc2c1ncn2[C@@H]1O[C@H](COC(C)=O)[C@@H](OC(C)=O)[C@@H]1O` [Example 2j, 9-(3,5-di-O-Acetyl-β-D-arabinofuranosyl)-2-amino-6-methoxy-9H-purine] came in with a solubility in data set [3] of 38 mM (≈ 14.5 mg/mL).
Consider `COc1nc(N)nc2c1ncn2[C@@H]1O[C@H](COC(C)=O)[C@@H](O)[C@@H]1O` [Example 1b, 9-(5-O-Acetyl-β-D-arabinofuranosyl)-2-amino-6-methoxy-9H-purine], for which the solubility in data set [3] was 92 mM (≈ 31.2 mg/mL).
For `COc1nc(N)nc2c1ncn2[C@@H]1O[C@H](CO)[C@@H](O)[C@@H]1O` [compound 1, 2-Amino-6-methoxy-9-(β-D-arabinofuranosyl)-9H-purine], the IC50 was 800 ± 100 nM in data set [1] and above 10000 nM in data set [2]. The activity at 10 µM in data set [2] turned out to be 85%. In data set [8], the “selective inhibition of growth of T-cell line vs B-cell line” value is listed as “selectively inhibits the growth of a human T-cell line (Molt 4) in contrast to a human B-cell line (IM9)”.
